# Test results taken from US20250295804A1, “PEG BASED ANTI-CD47/ANIT-PD-L1 BISPECIFIC ANTIBODY-DRUG CONJUGATE” (Shenzhen Enduring Biotech, Ltd., priority 2022, published 2025).
# Assays:
# [1] = test system: red blood cells (from healthy donors); test: FACS selective binding assay, red blood cells; type: cell-based; details: 30 min at 4° C.
# Experimental: (§1) Briefly, freshly prepared red blood cells (from healthy donors) and BxPC-3 tumor cells (Procell, Wuhan, China) were used as target cells. […] The cells were washed at least twice with PBS and analyzed with flow cytometry after incubation.
# [2] = test system: BxPC-3 tumor cells; test: FACS selective binding assay, tumor cells; type: cell-based; details: BxPC-3, 30 min at 4° C.
# Experimental: as §1
substance,measurement,setting,value
"Hu5F9-G4: anti-CD47 antibody, expressed and prepared in house [reference compound]",binding to target cells,[1],binds with high affinity
same,binding to target cells,[2],specifically bind
